From ChEMBL document CHEMBL5113403, “Design, synthesis, and biological evaluation of novel pyrazolo [3,4-d]pyrimidine derivatives as potent PLK4 inhibitors for the treatment of TRIM37-amplified breast cancer” (Eur J Med Chem, 2022) come the findings set out here.

Data set [1] in a line: Metabolic stability in human liver microsomes assessed as intrinsic clearance at 100 uM measured upto 60 mins in the presence of NADPH by LC-MS/MS analysis. In kind it is ADME, Microsome. The settings on record: 1 h. For orientation: Microsomes from liver hold many membrane-bound enzymes, among them those of drug oxidation.
Data set [2] is described as follows: MRT in Sprague-Dawley rat at 10 mg/kg, po by LC-MS/MS analysis. In kind it is ADME, organism-based. The following applies: in vivo.
In data set [3] the test system is MCF7. The data set is described as follows: Induction of cell cycle arrest in human MCF7 cells assessed as less G1 phase cells at 1 uM measured after 48 hrs by flow cytometry analysis (reference value: 0.44 %). In kind it is functional. For orientation: Flow cytometry measures light scatter and fluorescence of single cells or particles in a stream.
Data set [4] is described as follows: Half-life in Sprague-Dawley rat at 3 mg/kg, iv by LC-MS/MS analysis. In kind it is ADME, organism-based. The settings on record: in vivo.
The test system of data set [5] is MCF7. The data set is described as follows: Induction of apoptosis in human MCF7 cells assessed as early apoptotic cells at 0.25 uM incubated for 48 hrs by Annexin-V-FITC/PI staining based flow cytometric analysis (reference value: 2.83 %). In kind it is functional.
Data set [6] has as its system MCF7. Briefly: Induction of cell cycle arrest in human MCF7 cells assessed as G2 phase cells at 0.50 uM measured after 48 hrs by flow cytometry analysis (reference value: 31.8 %). In kind it is functional. The settings on record: dose 0.5 µM.
The subject of data set [7] is MCF7. Briefly: Induction of cell cycle arrest in human MCF7 cells assessed as G2 phase cells at 0.25 uM measured after 48 hrs by flow cytometry analysis (reference value: 31.8 %). In kind it is functional.
Data set [8] addresses Serine/threonine-protein kinase PAK 4 (Homo sapiens, UniProt O96013). The data set is described as follows: Inhibition of PAK4 (unknown origin) incubated for 60 mins by time-resolved HTRF assay.
In data set [9] the test system is MCF7. The data set is described as follows: Induction of cell cycle arrest in human MCF7 cells assessed as decrease in G1 phase cells at 0.25 uM measured after 48 hrs by flow cytometry analysis (reference value: 56.9 %). Also noted: scale not given: the % may be the effect or the level left. In kind it is functional.
The subject of data set [10] is MCF7. Briefly: Induction of cell cycle arrest in human MCF7 cells assessed as S phase cells at 1 uM measured after 48 hrs by flow cytometry analysis (reference value: 9.31 %). In kind it is functional.
Data set [11] in a line: Plasma stability in human assessed as half-life at 100 uM measured upto 120 mins by LC-MS/MS analysis relative to control. In kind it is ADME, cell-free.
Data set [12] has as its target CYP2C19 (Homo sapiens, UniProt P33261). Briefly: Inhibition of CYP2C19 in human liver microsomes at 10 uM preincubated for 10 mins followed by addition of NADPH-regenerating system and measured after 15 mins by LC-MS/MS analysis relative to control. The following applies: time 25 min. In kind it is ADME, Microsome.
Data set [13] relates to MCF7. The data set is described as follows: Induction of cell cycle arrest in human MCF7 cells assessed as less G1 phase cells at 0.10 uM measured after 48 hrs by flow cytometry analysis (reference value: 0.44 %). In kind it is functional. The settings on record: dose 0.1 µM.
The subject of data set [14] is MCF7. Briefly: Induction of apoptosis in human MCF7 cells assessed as viable cells at 1 uM incubated for 48 hrs by Annexin-V-FITC/PI staining based flow cytometric analysis (reference value: 97 %). In kind it is functional.

In general, MRT refers to the average time that molecules of a dose stay in the body. What is called half-life is how long it takes for the measured level to halve. One may read the IC50 as the midpoint of a concentration-inhibition curve. By inhibition is commonly meant how much of the control response was suppressed.

Sequence of CYP2C19 (P33261 whole entry): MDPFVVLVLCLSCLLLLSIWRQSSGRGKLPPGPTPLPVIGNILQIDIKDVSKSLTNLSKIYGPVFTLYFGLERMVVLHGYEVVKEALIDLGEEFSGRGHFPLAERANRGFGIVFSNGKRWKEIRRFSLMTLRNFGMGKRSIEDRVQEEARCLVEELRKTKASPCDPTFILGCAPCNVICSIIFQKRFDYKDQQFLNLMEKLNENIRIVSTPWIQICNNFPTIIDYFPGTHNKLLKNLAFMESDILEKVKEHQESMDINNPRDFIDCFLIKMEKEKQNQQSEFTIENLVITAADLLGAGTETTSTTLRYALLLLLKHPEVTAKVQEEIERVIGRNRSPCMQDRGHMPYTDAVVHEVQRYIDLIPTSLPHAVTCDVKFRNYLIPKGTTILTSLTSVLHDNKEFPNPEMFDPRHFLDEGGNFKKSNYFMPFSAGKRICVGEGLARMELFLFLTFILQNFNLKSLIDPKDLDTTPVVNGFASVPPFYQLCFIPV
Sequence of Serine/threonine-protein kinase PAK 4 (O96013 whole entry): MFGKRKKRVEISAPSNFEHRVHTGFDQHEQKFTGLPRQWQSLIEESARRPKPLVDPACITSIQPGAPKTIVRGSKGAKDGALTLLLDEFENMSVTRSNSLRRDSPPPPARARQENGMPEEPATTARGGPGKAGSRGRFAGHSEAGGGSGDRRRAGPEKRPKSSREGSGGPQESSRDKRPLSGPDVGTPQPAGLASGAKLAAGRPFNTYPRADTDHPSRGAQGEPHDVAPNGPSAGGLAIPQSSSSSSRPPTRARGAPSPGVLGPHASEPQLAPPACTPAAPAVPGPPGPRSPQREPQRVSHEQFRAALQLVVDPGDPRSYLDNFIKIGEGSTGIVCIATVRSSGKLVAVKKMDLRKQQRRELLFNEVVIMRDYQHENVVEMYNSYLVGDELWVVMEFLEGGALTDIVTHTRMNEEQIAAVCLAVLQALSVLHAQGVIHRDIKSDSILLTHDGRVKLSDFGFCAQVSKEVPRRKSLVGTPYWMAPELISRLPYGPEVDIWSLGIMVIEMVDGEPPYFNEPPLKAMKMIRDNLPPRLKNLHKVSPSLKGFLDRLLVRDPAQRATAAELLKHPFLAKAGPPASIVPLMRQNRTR

`Cc1cc(Nc2nc(NCc3ccc(F)cc3F)nc3c2cnn3C2CCOCC2)n[nH]1`: the CLint in data set [1] came out at 46.8 µL/min/mg. In [2], this molecule had an MRT of 3.13 h. In addition, the Activity worked out at 0.37% in [3]; 24.8% in [5]; 44.6% in [6]; 44.4% in data set [7]; 43.6% in data set [9]; 19.2% in data set [10]. Further, the figures for the Activity in data set [13] and in data set [14] were 0.37% and 27.5%, respectively. The molecule also showed a half-life in data set [4] of 1.05 h. In addition, in data set [8], the IC50 is 1750 nM. The half-life at 100 µM in data set [11] was greater than 4.82 h. Also, in data set [12], the inhibition at 0.25 h, 10 µM came out at 32.9%.
